Literature values, collected in US20080242648A1, “COMBINATION OF ERa+ LIGANDS AND HISTONE D[…] THE TREATMENT OF CANCER” (Syndax Pharmaceuticals, Inc., a California Corporation, priority 2006, published 2008).

Test system: breast cancer
Settings: second line setting, post-menopausal women

## 7-alpha-[9-(4,4,5,5,5-penta fluoropentylsulphinyl)nonyl]estra-1,3,5-(10)-triene-3,17-beta-diol [Faslodex]
  response rate: 17-20%
  time to progression: 5.4-5.5 month
